Measured values taken from ChEMBL document CHEMBL3751686, “Novel benzoxepine-1,2,3-triazole hybrids: synthesis and pharmacological evaluation as potential antibacterial and anticancer agents” (Medchemcomm, 2015).
≈ marks a conversion by molar mass, not a printed value. Calls of active or inactive are those of the source. The rule behind the calls is not given here.

Assays:
Pseudomonas aeruginosa [1] = experiment: Antibacterial activity against Pseudomonas aeruginosa MTCC 6642 at 0.4 mg/50 uL incubated overnight by agar-well diffusion analysis; format: functional
Klebsiella pneumoniae [2] = experiment: Antibacterial activity against Klebsiella pneumoniae at 0.4 mg/50 uL incubated overnight by agar-well diffusion analysis; format: functional
Escherichia coli [3] = experiment: Antibacterial activity against Escherichia coli MTCC 1563 at 0.4 mg/50 uL incubated overnight by agar-well diffusion analysis; format: functional
Staphylococcus aureus [4] = experiment: Antibacterial activity against Staphylococcus aureus at 0.4 mg/50 uL incubated overnight by agar-well diffusion analysis; format: functional
NCI-H226 [5] = experiment: Cytotoxicity against human NCI-H226 cells assessed as cell growth at 80 ug/ml after 48 hrs by SRB assay; format: functional; conditions: NCI-H226, 48 h, read-out: Activity
[6] = Cytotoxicity against human HCT15 cells assessed as cell growth at 80 ug/ml after 48 hrs by SRB assay; format: functional; conditions: HCT-15, 48 h, read-out: Activity
HEK293 = experiment: Cytotoxicity against HEK293 cells after 48 hrs by SRB assay; format: cell-based; conditions: human, hek293, 48 h
NCI-H226 [7] = experiment: Cytotoxicity against human NCI-H226 cells after 48 hrs by SRB assay; format: functional; conditions: NCI-H226, 48 h
[8] = Cytotoxicity against human HCT15 cells after 48 hrs by SRB assay; format: functional; conditions: HCT-15, 48 h; for CC50: read-out: LC50 (the source's name)
Pseudomonas aeruginosa [9] = experiment: Antibacterial activity against Pseudomonas aeruginosa MTCC 6642 at 0.04 mg/50 uL incubated overnight by agar-well diffusion analysis; format: functional
Staphylococcus aureus [10] = experiment: Antibacterial activity against Staphylococcus aureus at 0.04 mg/50 uL incubated overnight by agar-well diffusion analysis; format: functional
Klebsiella pneumoniae [11] = experiment: Antibacterial activity against Klebsiella pneumoniae at 0.04 mg/50 uL incubated overnight by agar-well diffusion analysis; format: functional
Escherichia coli [12] = experiment: Antibacterial activity against Escherichia coli MTCC 1563 at 0.04 mg/50 uL incubated overnight by agar-well diffusion analysis; format: functional

Row | SMILES | diameter of the inhibition zone (DIZ) (Pseudomonas aeruginosa [1]) | diameter of the inhibition zone (DIZ) (Klebsiella pneumoniae [2]) | diameter of the inhibition zone (DIZ) (Escherichia coli [3]) | diameter of the inhibition zone (DIZ) (Staphylococcus aureus [4]) | also measured
1 | Cc1ccc(-c2cn(CC3=C(Cl)c4cc(Cl)ccc4OCC3)nn2)cc1 | 12 mm | 10 mm | 13 mm |  | 
2 | ClC1=C(Cn2cc(-c3ccccc3)nn2)CCOc2ccccc21 | 13 mm | 18 mm | inactive | 7 mm | growth at 80 µg/mL (NCI-H226 [5]): 73%; growth at 80 µg/mL [6]: 61%; Activity (HEK293): Non-toxic
3 | Cc1ccc(-c2cn(CC3=C(Cl)c4cc(C)ccc4OCC3)nn2)cc1 | 10 mm |  | 10 mm | 8 mm | 
4 | Cc1cc(=O)oc2cc(OCc3cn(CC4=C(Cl)c5cc(Cl)ccc5OCC4)nn3)ccc12 | 18 mm |  | 14 mm | 12 mm | 
5 | ClC1=C(Cn2cc(COc3cccc4cccnc34)nn2)CCOc2ccc(Cl)cc21 | 10 mm | 12 mm | 10 mm | 12 mm | 
6 | Cc1ccc(-c2cn(CC3=C(Cl)c4cccc(C)c4OCC3)nn2)cc1 | 15 mm | 17 mm | 20 mm | 7 mm | growth at 80 µg/mL [6]: 58%; Activity (HEK293): Non-toxic
7 | ClC1=C(Cn2cc(COc3cccc4cccnc34)nn2)CCOc2ccccc21 |  | inactive | 11 mm | 8 mm | 
8 | Cc1cc(=O)oc2cc(OCc3cn(CC4=C(Cl)c5ccccc5OCC4)nn3)ccc12 | 12 mm | 7 mm | 11 mm | 11 mm | 
9 | O=c1ccc2ccc(OCc3cn(CC4=C(Cl)c5cc(Cl)ccc5OCC4)nn3)cc2o1 | 11 mm | 12 mm | inactive | 10 mm | 
10 | Cc1ccc(-c2cn(CC3=C(Cl)c4ccccc4OCC3)nn2)cc1 | 12 mm |  | 9 mm | 10 mm | growth at 80 µg/mL [6]: 55%; Activity (HEK293): Non-toxic
11 | Cc1ccc2c(c1)C(Cl)=C(Cn1cc(COc3ccc4ccc(=O)oc4c3)nn1)CCO2 | 18 mm |  | 16 mm | 10 mm | GI50 (NCI-H226 [7]): 41.3 µg/mL (≈ 91.8 µM); LC50 (NCI-H226 [7]): > 80 µg/mL; TGI (NCI-H226 [7]): > 80 µg/mL; GI50 [8]: 52.5 µg/mL (≈ 117 µM); TGI [8]: > 80 µg/mL; CC50 [8]: > 80 µg/mL; growth at 80 µg/mL (NCI-H226 [5]): 8%; growth at 80 µg/mL [6]: 33%; Activity (HEK293): Non-toxic
12 | Cc1cccc2c1OCCC(Cn1cc(COc3ccc4c(C)cc(=O)oc4c3)nn1)=C2Cl | 11 mm |  |  | 11 mm | 
13 | Cc1cccc2c1OCCC(Cn1cc(COc3ccc4ccc(=O)oc4c3)nn1)=C2Cl | 14 mm | inactive |  | 12 mm | growth at 80 µg/mL [6]: 86%; Activity (HEK293): Non-toxic
14 | Cc1ccc2c(c1)C(Cl)=C(Cn1cc(COc3ccc4c(C)cc(=O)oc4c3)nn1)CCO2 | 16 mm | 12 mm | inactive |  | 
15 | Cc1cccc2c1OCCC(Cn1cc(COc3cccc4cccnc34)nn1)=C2Cl | 18 mm |  |  | 10 mm | 
16 | Cc1ccc2c(c1)C(Cl)=C(Cn1cc(-c3ccccc3)nn1)CCO2 | 16 mm | 9 mm |  |  | 
17 | O=c1ccc2ccc(OCc3cn(CC4=C(Cl)c5ccccc5OCC4)nn3)cc2o1 | 12 mm | 11 mm | inactive | 10 mm | 
18 | Cc1cccc2c1OCCC(Cn1cc(-c3ccccc3)nn1)=C2Cl | 11 mm | 9 mm | 25 mm |  | 
19 | CCn1cc(C(=O)O)c(=O)c2cc(F)c(N3CCN(C)CC3)cc21 [PEFLOXACIN] |  |  |  |  | diameter of the inhibition zone (DIZ) (Pseudomonas aeruginosa [9]): 28 mm; diameter of the inhibition zone (DIZ) (Staphylococcus aureus [10]): 36 mm; diameter of the inhibition zone (DIZ) (Klebsiella pneumoniae [11]): 35 mm; diameter of the inhibition zone (DIZ) (Escherichia coli [12]): 31 mm
20 | COc1cccc2c1C(=O)c1c(O)c3c(c(O)c1C2=O)C[C@@](O)(C(=O)CO)C[C@@H]3O[C@H]1C[C@H](N)[C@H](O)[C@H](C)O1 [DOXORUBICIN] |  |  |  |  | GI50 (NCI-H226 [7]): < 10 µg/mL; TGI (NCI-H226 [7]): < 10 µg/mL; GI50 [8]: < 10 µg/mL; TGI [8]: 36.1 µg/mL (≈ 66.4 µM); CC50 [8]: > 80 µg/mL
